# Tested on: bipolaris sorokininan
# Assay: Seed treatment: disease prevention and yield keeping on wheat
# Type: in vivo
# Conditions: treated seeds
# Description: Seeds treaed with FA whose weight amount to 0.2% seed by weight have disease prevention effect for bipolaris sorokininan and yield keeping effect. After the seeds were treated, the wheat developed well and occurrence of powdery mildew was less compared to blank. Yield keeping effect of mixture of FAn and triazolone was improved from 7.79% of single use of triazolone to 10.67%.
smiles,measurement,value
CC(C)(C)C(=O)C(Oc1ccc(Cl)cc1)n1cncn1 (stereo not shown) [triazolone],yield keeping effect (%),7.79%
